Data taken from patent US20080132417A1, “Molecular Basis For The Identification Of Chemotherapy Resistance In Human Tumors And The Treatment Thereof” (THE UAB RESEARCH FOUNDATION, priority 2004, published 2008).
≈ marks a conversion by molar mass, not a printed value.

What was measured:
Assay type in all cases: cell-based, human
SW948CPTH cells = test: Cell proliferation assay, cross-resistance of SW948CPTH; settings: for IC50: Homo sapiens, read-out: mean IC50 dose, SW948CPTH; for cross-resistance of SW948CPTH cells (in words): compared to SW948; for mean IC50 dose, SW948CPTH: SW948CPTH cells, without CPT-11 for >22 days, 24 h drug exposure, counted day 4, mean ± SD; for fold change, SW948CPTH: fold change of IC50 vs SW948 (in brackets)
Experimental: (§1) Determination of cross-resistance was determined by cell proliferation assay. SW948, SW948CPTH or SW948CPTL cells were plated in 24-well tissue culture plates and allowed to grow for 24 h at which time the drugs were added at various doses ranging from 0-80 μg/ml. Then 24 h later, the culture medium was removed, and the cells were washed once with PBS followed by the addition of drug-free culture medium. Cells were counted on day 4 using a cell counter (Beckman Coulter, Fullerton, Calif.). The data were analyzed with Microsoft Excel (Microsoft Corp., Redmond, Wash.) using an exponential regression model to determine the IC50 dose.

SW948CPTL cells = test: Cell proliferation assay, cross-resistance of SW948CPTL; settings: for IC50: Homo sapiens, read-out: mean IC50 dose, SW948CPTL; for resistance of SW948CPTL cells (in words): compared to SW948; for fold change, SW948CPTL: fold change of IC50 vs SW948 (in brackets); for mean IC50 dose, SW948CPTL: SW948CPTL cells, without CPT-11 for >28 days, 24 h drug exposure, counted day 4, mean ± SD
Experimental: as §1

SW948 cells = test: Cell proliferation assay, sensitivity of SW948 to various drugs; settings: SW948 parental cells, 24 h drug exposure, cells counted day 4, mean ± SD of 1-4 assays; for IC50: Homo sapiens, read-out: mean IC50 dose, SW948
Experimental: as §1

SMILES | IC50 (SW948CPTH cells) | cross-resistance of SW948CPTH cells (in words) (SW948CPTH cells) | IC50 (SW948CPTL cells) | resistance of SW948CPTL cells (in words) (SW948CPTL cells) | IC50 (SW948 cells) | mean IC50 dose, SW948CPTH (SW948CPTH cells) | fold change, SW948CPTH (SW948CPTH cells) | mean IC50 dose, SW948 (SW948 cells) | fold change, SW948CPTL (SW948CPTL cells) | mean IC50 dose, SW948CPTL (SW948CPTL cells)
O=c1[nH]cc(F)c(=O)[nH]1 [5-FU, 5-fluorouracil] | 0.54 ± 0.2 µg/mL (≈ 4.15 µM) | No resistant | 0.75 ± 0.02 µg/mL (≈ 5.77 µM) | no resistance | 0.61 ± 0.1 µg/mL (≈ 4.69 µM) |  |  |  |  | 
CC[C@@]1(O)C(=O)OCc2c1cc1n(c2=O)Cc2cc3cc(O)ccc3nc2-1 [10-OH-CPT] |  | cross-resistant |  |  |  | 1.7 ± 0.3 µg/mL | 7 | 0.25 ± 0.16 µg/mL |  | 
CC[C@@]1(O)C(=O)OCc2c1cc1n(c2=O)Cc2cc3ccccc3nc2-1 [CPT, camptothecin] | 0.32 ± 0.02 µg/mL (≈ 0.919 µM) | cross-resistant | 0.14 µg/mL (≈ 0.402 µM) | showed resistance | 0.057 ± 0.02 µg/mL (≈ 0.164 µM) |  | 6 |  | 2.4 | 
CCc1c2c(nc3ccc(OC(=O)N4CCC(N5CCCCC5)CC4)cc13)-c1cc3c(c(=O)n1C2)COC(=O)[C@]3(O)CC [CPT-11] |  | cross-resistant |  | showed resistance |  | 38 ± 6.9 µg/mL |  | 3.0 ± 0.3 µg/mL |  | 
N.N.[Cl][Pt][Cl] [Cisplatin, cisplatin] |  | No resistant |  | showed resistance |  | 1.5 ± 0.15 µg/mL |  | 1.3 ± 0.34 µg/mL | 1.7 | 2.2 ± 1.3 µg/mL
COc1cccc2c1C(=O)c1c(O)c3c(c(O)c1C2=O)C[C@@](O)(C(=O)CO)C[C@@H]3O[C@H]1C[C@H](N)[C@H](O)[C@H](C)O1 [Doxorubicin, doxorubicin] | 0.048 ± 0.008 µg/mL (≈ 0.0883 µM) | No resistant |  |  | 0.037 ± 0.008 µg/mL (≈ 0.0681 µM) |  |  |  |  | 
COc1cc([C@@H]2c3cc4c(cc3[C@@H](O[C@@H]3O[C@@H]5CO[C@@H](C)O[C@H]5[C@H](O)[C@H]3O)[C@H]3COC(=O)[C@H]23)OCO4)cc(OC)c1O [Etoposide, etoposide] | 0.7 ± 0.2 µg/mL (≈ 1.19 µM) | not cross-resistant | 1.6 ± 0.2 µg/mL (≈ 2.72 µM) | showed resistance | 0.8 ± 0.1 µg/mL (≈ 1.36 µM) |  |  |  | 2 | 
Nc1ccn([C@@H]2O[C@H](CO)[C@@H](O)C2(F)F)c(=O)n1 [Gemcitabine, gemcitabine] | 0.008 ± 0.004 µg/mL (≈ 0.0304 µM) | No resistant | 0.016 µg/mL (≈ 0.0608 µM) | showed resistance | 0.009 ± 0.004 µg/mL (≈ 0.0342 µM) |  |  |  | 1.8 | 
CC1(C)CCC2=C(O1)c1ccccc1C(=O)C2=O [Lapachone] | 0.84 ± 0.21 µg/mL (≈ 3.47 µM) | not cross-resistant |  |  | 1.06 ± 0.16 µg/mL (≈ 4.38 µM) |  |  |  |  | 
CCc1c2c(nc3ccc(O)cc13)-c1cc3c(c(=O)n1C2)COC(=O)[C@]3(O)CC [SN38] |  | cross-resistant |  | showed resistance |  | 1.5 ± 0.13 µg/mL | 8 | 0.19 ± 0.01 µg/mL | 9 | 1.7 ± 0.15 µg/mL
